In ChEMBL document CHEMBL1140671, “Interaction of O-(undec-10-en)-yl-D-glucose derivatives with the Plasmodium falciparum hexose transporter (PfHT)” (Bioorg Med Chem Lett, 2007):
Each block holds one molecule with its values, some of them ahead of it. The source made the active and inactive calls. The calls are words filed in the database; no cut-off is given here.

Assays:
Hexose transporter 1 = biological target: T1, Hexose transporter 1 (Plasmodium falciparum, UniProt O97467); test: Inhibition of [3H]glucose uptake at Plasmodium falciparum HT expressed in Xenopus laevis oocytes; assay type: cell-based, Oocyte
T1 sequence (O97467 whole entry): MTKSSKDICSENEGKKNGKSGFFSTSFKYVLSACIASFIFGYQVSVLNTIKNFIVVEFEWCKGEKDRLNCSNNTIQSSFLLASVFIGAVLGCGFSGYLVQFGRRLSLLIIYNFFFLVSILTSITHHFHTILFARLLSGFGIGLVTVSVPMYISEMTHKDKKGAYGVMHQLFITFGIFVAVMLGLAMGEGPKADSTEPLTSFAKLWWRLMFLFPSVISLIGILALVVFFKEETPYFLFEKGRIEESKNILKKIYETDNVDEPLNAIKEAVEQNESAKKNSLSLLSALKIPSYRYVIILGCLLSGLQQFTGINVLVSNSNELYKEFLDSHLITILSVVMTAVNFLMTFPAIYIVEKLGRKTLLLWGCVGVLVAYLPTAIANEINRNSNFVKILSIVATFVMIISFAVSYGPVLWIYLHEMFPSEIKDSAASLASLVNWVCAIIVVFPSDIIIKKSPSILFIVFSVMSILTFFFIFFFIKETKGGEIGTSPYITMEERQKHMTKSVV

[1] = biological target: T2, Solute carrier family 2, facilitated glucose transporter member 1 (Homo sapiens) (UniProt P11166); test: (§1) Inhibition of [3H]glucose uptake at mammalian GLUT1 expressed in Xenopus laevis oocytes; assay type: cell-based; conditions: Oocyte
T2 sequence (whole entry): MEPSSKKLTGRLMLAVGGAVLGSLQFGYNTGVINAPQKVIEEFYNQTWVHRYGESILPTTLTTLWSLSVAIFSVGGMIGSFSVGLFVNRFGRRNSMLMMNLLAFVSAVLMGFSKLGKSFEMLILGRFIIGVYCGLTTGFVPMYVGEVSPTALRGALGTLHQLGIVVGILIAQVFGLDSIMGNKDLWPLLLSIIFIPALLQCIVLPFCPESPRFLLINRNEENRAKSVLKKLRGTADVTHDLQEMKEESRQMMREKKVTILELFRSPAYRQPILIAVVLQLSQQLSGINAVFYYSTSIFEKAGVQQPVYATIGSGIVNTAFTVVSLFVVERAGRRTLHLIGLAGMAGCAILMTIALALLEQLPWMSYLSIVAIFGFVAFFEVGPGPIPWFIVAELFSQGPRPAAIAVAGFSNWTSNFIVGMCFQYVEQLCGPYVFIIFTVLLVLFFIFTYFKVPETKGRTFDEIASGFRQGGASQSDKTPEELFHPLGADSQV

[2] = biological target: T3, Solute carrier family 2, facilitated glucose transporter member 1 (Homo sapiens, UniProt P11166); test: as §1; assay type: cell-based, Oocyte
T3 sequence (P11166 whole entry): T2 sequence (whole entry)

Plasmodium falciparum = test: Antiplasmodial activity against Plasmodium falciparum 3D7; assay type: functional, organism-based

Ki (Hexose transporter 1): 1500 µM | Activity [1]: inactive
SMILES: C=CCCCCCCCCCO[C@H](CO)[C@H]1OC(O)[C@H](O)[C@H]1O (stereo partly drawn)

Ki (Hexose transporter 1): > 500 µM | Activity [1]: inactive
SMILES: C=CCCCCCCCCCO[C@H]1O[C@H]([C@H](O)CO)[C@H](O)[C@H]1O

Ki (Hexose transporter 1): > 500 µM | Activity [1]: inactive
SMILES: C=CCCCCCCCCCO[C@@H]1O[C@H]([C@H](O)CO)[C@H](O)[C@H]1O

Ki (Hexose transporter 1): 26 µM | IC50 (Plasmodium falciparum): 123 µM | Ki [2]: 98 µM
SMILES: C=CCCCCCCCCCO[C@H]1[C@H](O)[C@@H](CO)OC(O)[C@@H]1O (stereo partly drawn)

Ki (Hexose transporter 1): > 500 µM | Ki [2]: > 500 µM
SMILES: C=CCCCCCCCCCO[C@@H]1O[C@H](CO)[C@@H](O)[C@H](O)[C@H]1O

The remaining lines, values behind:

SMILES: C=CCCCCCCCCCOC[C@H]1OC(O)[C@H](O)[C@@H](O)[C@@H]1O (stereo partly drawn)
Ki (Hexose transporter 1): 2000 µM | Ki [2]: 400 µM

SMILES: C=CCCCCCCCCCO[C@H]1O[C@H](CO)[C@@H](O)[C@H](O)[C@H]1O
Ki (Hexose transporter 1): > 500 µM | Activity [1]: inactive

SMILES: C=CCCCCCCCCCO[C@H]1C(O)O[C@H](CO)[C@@H](O)[C@@H]1O (stereo partly drawn)
Ki (Hexose transporter 1): 2 µM | IC50 (Plasmodium falciparum): 8.2 µM | Activity [1]: inactive
